Results on 17 compounds are retold here after patent US4136196A, “Hypoglycaemically active 2-(phenylalkyl- or -alkenyl hydrazono)-propionic acid derivatives” (Boehringer Mannheim GmbH, priority 1976, dated 1979).

Like-named read-outs stand apart in the source and are kept apart here.

The subject of one test is blood glucose. The experiment in a line: Blood sugar tests: hypoglycaemic activity in fasting guinea pigs, i.p. Conditions: for minimal effective dose: Cavia porcellus, ip, read-out: Threshold i.p. Dosage for Hypoglycaemic Activity in Testing Guinea Pigs. Format: in vivo, guinea pig. Here is the method:
In order to illustrate the pharmacological properties of the compounds according to the invention, the blood sugarlowering effect and the monoaminoxidase (MAO) inhibition were determined and compared with some corresponding hydrazines. […] Metabolically healthy, cross-bred, fasting guinea pigs were injected with the substances as aqueous solutions of their sodium salts, i.p. A control group receives equivalent amounts of an isotonic NaCl solution. Directly before, as well as in hourly intervals up to the fourth hour after the […], 10 μl blood are taken from an ear border vein and the blood glucose is determined by means of the trouble-free and specific hexokinase technique.

The subject of the next test is MAO. Briefly: Measuring of the MAO activity in vitro (kynuramine substrate, unrefined guinea pig liver or brain preparation). Format: biochemical. Particulars: 360 mμ, read-out: Concentration for 50% MAO Inhibitions. Here is the method:
In order to illustrate the pharmacological properties of the compounds according to the invention, the blood sugarlowering effect and the monoaminoxidase (MAO) inhibition were determined and compared with some corresponding hydrazines.
An unrefined MAO preparation is obtained by comminution of guinea pig liver or brain with the Ultraturrax and subsequent centrifuging at about 10,000 g. The liquid contains the MAO portion dissolved in the cytoplasm and is used for the activity measurements. As substrate there is used kynuramine whose oxidative decomposition by the MAO can be directly observed at 360 m μ in the photometer. The extinction decrease per time unit is a measure of the enzyme activity.

For test [1] the following is noted: in high dosages; literature; cited from earlier work.
Where [2] appears, read: fasting guinea pigs, i.p., aqueous solutions of sodium salts, dosage which significantly lowers blood glucose versus control, up to fourth hour.

Regarding “3-phenyl-propen-2-yl--hydrazin-hydrochloride [reference compound]”, the “Threshold i.p. Dosage for Hypoglycaemic Activity in Testing Guinea Pigs” value in the test with blood glucose (setting [2]) was greater than 50 mg/kg. `CC(=NNCCc1ccccc1C)C(=O)O` [2-(2-methylphenethylhydrazono)-propionic acid]: in the test with blood glucose (setting [2]), the minimal effective dose is 50 mg/kg. On the same count and under the same terms, the result for `CC(=NNCCc1ccc(Cl)cc1)C(=O)O` [2-(4-chlorophenethylhydrazono)-propionic acid] reads 25 mg/kg.

For the compound `CC(=NNCCc1ccc(F)cc1)C(=O)O` [2-(4-fluorophenethylhydrazono)-propionic acid], in the test on blood glucose (setting [2]), the minimal effective dose amounted to 25 mg/kg.

In the case of `COc1ccc(CCNN=C(C)C(=O)O)cc1` [2-(4-methoxyphenethylhydrazono)-propionic acid], the minimal effective dose in the test with blood glucose (setting [2]) worked out at 50 mg/kg.

As for `CC(=NNCCc1ccccc1)C(N)=O` [2-(phenethylhydrazono)-propionamide], in the test on blood glucose (setting [2]), the minimal effective dose was 50 mg/kg. `CC(=NNCCc1ccccc1)C(=O)O` [2-(phenethylhydrazono)-propionic acid, 2-(Phenethylhydrazono)-propionic acid]: the IC50 with MAO turned out to be 600 µM. The minimal effective dose in the test on blood glucose (setting [2]) stood at 15 mg/kg. On to `CC(=NNCCc1ccc(C)cc1)C(=O)O` [2-[2-(p-tolyl)-ethylhydrazono]-propionic acid], for which, in the test on blood glucose (setting [2]), the minimal effective dose came to 50 mg/kg.

`CCOC(=O)C(C)=NNCCc1ccccc1` [Ethyl 2-(phenethylhydrazono)-propionate]: the minimal effective dose with blood glucose (setting [2]) was found to be 25 mg/kg. As for `COC(=O)C(C)=NNCCc1ccccc1` [Methyl 2-(phenethylhydrazono)-propionate], the minimal effective dose in the test on blood glucose (setting [2]) is 50 mg/kg. In the case of `NNCCc1ccccc1` [Phenelzine, 2-phenylethyl-hydrazine, reference compound], the IC50 with MAO amounted to 0.4 µM. For the same compound, in the test on blood glucose, the minimal effective dose was no less than 50 mg/kg. Moreover, the hypoglycaemic activity entry in test [1] is “can be hypoglycaemically active in high dosages”. For the compound `CC(=NNCCCc1ccccc1)C(=O)[O-].[Na+]` [Sodium 2-(3-phenylpropylhydrazono)-propionate], the minimal effective dose with blood glucose was found to be 35 mg/kg. On to `CC(=NNCC=Cc1ccccc1)C(=O)[O-].[Na+]` [Sodium-2-(cinnamylhydrazono)-propionate, sodium 2-(cinnamylhydrazono)-propionate], for which, in the test with blood glucose, the minimal effective dose came to 15 mg/kg.

As to `CC(NN)c1ccccc1` (centres unmarked) [mebanazine, 1-phenylethyl-hydrazine], the hypoglycaemic activity entry in test [1] was “can be hypoglycaemically active in high dosages”. As for `COc1ccccc1CCNN=C(C)C(=O)[O-].[Na+]` [sodium 2-(2-methoxyphenethylhydrazono)-propionate], the minimal effective dose in the test on blood glucose is 25 mg/kg. As to `CC(=NNCCc1cccc(Br)c1)C(=O)[O-].[Na+]` [sodium 2-(3-bromophenethylhydrazono)-propionate], the minimal effective dose in the test on blood glucose is 25 to 50 mg/kg. For the compound “sodium 2-(β-methylcinnamylhydrazono)-propionate”, the “Threshold i.p. Dosage for Hypoglycaemic Activity in Testing Guinea Pigs” value in the test on blood glucose (setting [2]) was 10 mg/kg.
